These results are taken from patent US20220125795A1, “THERAPEUTIC COMBINATIONS AND COMPOSITIONS FOR THE TREATMENT OF INFLAMMATORY BOWEL DISEASE” (RIJKSUNIVERSITEIT GRONINGEN, priority 2019, published 2022).

Each structure is given as a SMILES string.

Common to all, as to type: in vivo, human
A short description of assay [1]: Prospective clinical intervention study in CD patients: clinical disease activity (Harvey-Bradshaw Index). The following applies: 100 mg riboflavin daily for 3 weeks, before vs after. Here is the method: (§1) In a prospective clinical intervention study, 70 CD patients were included and divided into two groups with (active) and without (quiescent) evidence of mucosal inflammation (defined by fecal calprotectin (FC) cut-off value: 200 μg/g). Patients received 100 mg riboflavin daily for 3 weeks. Clinical disease activity (Harvey-Bradshaw Index: HBI), inflammatory biomarkers (including interleukin 2) as well as fecal microbial composition (including pathogenic Enterobacteriaceae including E. coli) were analyzed before and after riboflavin intervention.

Another assay concerns interleukin 2. The experiment in a line: Prospective clinical intervention study in CD patients: inflammatory biomarkers (interleukin 2). Particulars: CD patients with thiopurine treatment; 100 mg riboflavin daily for 3 weeks. Here is the method:
as §1

For assay [2], the system named is Enterobacteriaceae including E. coli. The experiment in a line: Prospective clinical intervention study in CD patients: fecal microbial composition. Particulars: CD patients with thiopurine treatment; 100 mg riboflavin daily for 3 weeks. As to the method:
as §1

For the molecule `Cc1cc2nc3c(=O)[nH]c(=O)nc-3n(C[C@H](O)[C@H](O)[C@H](O)CO)c2cc1C` [riboflavin], the “clinical disease activity (HBI)” value is reported as “this was not the case (not as pronounced as)” in assay [1] (CD patients with mesalazine treatment) and “further reduced clinical disease activity (HBI)” in assay [1] (CD patients with thiopurine treatment (particularly quiescent disease)). Moreover, the “proinflammatory cytokine IL2” value in the assay on interleukin 2 is listed as “further reduction”. The “Enterobacteriaceae including E. coli (fecal)” value in assay [2] was “further reduction”.
